{"source": "patent US11135153B2", "about": "“High penetration composition and uses thereof” (Techfields Pharma Co., Ltd., priority 2006, dated 2021)", "key": {"[1]": {"assay": "In vitro penetration rate through human skin in modified Franz cells", "type": "in vitro ADME", "settings": "isolated human skin 360-400 μm, 2 mL, 20% in 0.2 M phosphate buffer pH 7.4", "description": "The penetration rates of HPPs of 4-aminophenol derivatives and their parent drugs through human skin were measured in vitro by modified Franz cells. […] The human skin tissue (360-400 μm thick) that separated the top and the receptor chambers was isolated from the anterior or posterior thigh areas.\nThe amount of the tested compound penetrating the skin was determined by high-performance liquid chromatography (HPLC) method.\nThe lowest detectable apparent flux values in this method was 1 μg/cm^2/h, the parent drugs tested (e.g. acetaminophen and acetaminosalol) had […], and the corresponding HPPs had higher apparent flux value."}, "[2]": {"assay": "Plasma levels of parent compounds after transdermal administration to hairless mice", "type": "in vivo", "settings": "transdermal on 10 cm^2 back skin; for Plasma concentration of the parent compound (peak plasma level): 20% solution or suspension in 1 ml 70% ethanol; for t (time to peak plasma level of the parent compound): 20% in 1 ml 70% ethanol", "description": "Test compounds (20% solution or suspension of HPPs or parent drugs in 1 ml of 70% ethanol) were administered transdermally to 10 cm^2 skin on the backs of hairless mice. The plasma levels of the parent compounds were determined by HPLC."}, "[3]": {"assay": "Aqueous solubility of HPPs and parent drugs", "type": "physicochemical"}, "in vivo": {"assay": "in vivo", "settings": "mouse"}, "[4]": {"assay": "In vivo transportation: amounts in organs and tissue of rats after application to back skin", "settings": "6 hours after 20% in 1 mL 50% ethanol on 10 cm^2 back skin", "description": "N-Acetyl-p-aminophenyl dimethylaminobutyrate.HCl (20% in 1 mL of 50% ethanol) was applied to about 10 cm^2 skin on the backs of rats (˜200 g). After 6 hours, the rats were terminated, and methanol (5 mL) was added to 1 g of tissue on the back of rat (under the skin), 1 ml of blood, 1 g of liver, 1 g of kidney, and 1 g of brain respectively (the tissue, liver, kidney or brain was washed with pH 7.2 buffer for three times) and the mixtures were homogenized. The samples were then centrifuged for 5 min and analyzed using HPLC."}, "rats": {"test_system": "rats", "assay": "Antipyretic activity in rats given E. coli suspension as pyrogen", "type": "in vivo", "settings": "100 mg/kg transdermally", "description": "Rats received a sterilized E. coli suspension as a pyrogen. The control group was group A. 2 hours later, N-acetyl-p-aminophenyl dimethylaminobutyrate.HCl (100 mg/kg, B) and 4-acetamidophenyl 2((4-(dimethylamino)butanoyl)oxy)benzoate.HCl, (100 mg/kg, C) were administered transdermally respectively. The body temperature of rats was taken at 90 min. intervals before and after the administration of the test compounds."}, "mice": {"test_system": "mice", "assay": "Analgesic activity, acetic acid writhing inhibition", "type": "in vivo", "settings": "100 mg/kg transdermally, versus control group", "description": "Acetic acid solution was administered intraperitoneally to a group of mice (6 mice every group) 120 minutes after a test compound was administered to the mice at the dosage specified in the tables below. The prodrug compounds were administered either transdermally or orally. N-acetyl-p-aminophenyl dimethylaminobutyrate.HCl (100 mg/kg, B) and 4-acetamidophenyl 2((4-(dimethylamino)butanoyl)oxy)benzoate.HCl, (100 mg/kg, C) were administered transdermally. The number of writhings that occurred when mice were administered the acetic acid solution were counted, and the rate of inhibition based on the control group which was not pretreated with any test compounds was calculated. […] Group A was the control group."}, "[5]": {"settings": "water (aqueous), read-out: Solubility"}}, "note": "Where two headings read alike, the source gives them in different places."}
{"smiles": "CC(=O)Nc1ccc(O)cc1", "note": "[acetaminophen, N-Acetyl-p-aminophenol, reference compound]", "values": [{"measurement": "In vitro Penetration rate (apparent flux)", "setting": "[1]", "value": 10, "unit": "μg/cm^2/h"}, {"measurement": "Plasma concentration of the parent compound (peak plasma level)", "setting": "[2]", "value": 0.1, "unit": "mg/L"}, {"measurement": "t (time to peak plasma level of the parent compound)", "setting": "[2]; parent compound", "value": "~5", "unit": "h"}, {"measurement": "solubility", "setting": "[3]; [5]", "value": "< 0.2", "unit": "mg/mL"}, {"measurement": "LD50", "setting": "in vivo", "value": 340, "unit": "mg/kg"}]}
{"smiles": "CC(=O)Nc1ccc(OC(=O)CCCN(C)C)cc1.Cl", "note": "[N-Acetyl-p-Aminophenyl Dimethylaminobutyrate.HCl]", "values": [{"measurement": "In vitro Penetration rate (apparent flux)", "setting": "[1]", "value": 1500, "unit": "μg/cm^2/h"}, {"measurement": "Plasma concentration of the parent compound (peak plasma level)", "setting": "[2]", "value": 30.0, "unit": "mg/L"}, {"measurement": "t (time to peak plasma level of the parent compound)", "setting": "[2]; prodrug compound", "value": "~0.833", "unit": "h"}, {"measurement": "solubility", "setting": "[3]", "value": ">400", "unit": "mg/mL"}, {"measurement": "N-acetyl-p-aminophenyl dimethylaminobutyrate detected in blood", "setting": "[4]", "value": "10 ± 4", "unit": "µg/g"}, {"measurement": "N-acetyl-p-aminophenyl dimethylaminobutyrate detected in brain", "setting": "[4]", "value": "3 ± 3", "unit": "µg/g"}, {"measurement": "N-acetyl-p-aminophenyl dimethylaminobutyrate detected in kidney", "setting": "[4]", "value": "6 ± 4", "unit": "µg/g"}, {"measurement": "N-acetyl-p-aminophenyl dimethylaminobutyrate detected in liver", "setting": "[4]", "value": "7 ± 4", "unit": "µg/g"}, {"measurement": "N-acetyl-p-aminophenyl dimethylaminobutyrate detected in under-skin tissue", "setting": "[4]", "value": "15 ± 8", "unit": "µg/g"}, {"measurement": "acetaminophen detected in blood", "setting": "[4]", "value": "30 ± 8", "unit": "µg/g"}, {"measurement": "acetaminophen detected in brain", "setting": "[4]", "value": "10 ± 8", "unit": "µg/g"}, {"measurement": "acetaminophen detected in kidney", "setting": "[4]", "value": "20 ± 10", "unit": "µg/g"}, {"measurement": "acetaminophen detected in liver", "setting": "[4]", "value": "20 ± 10", "unit": "µg/g"}, {"measurement": "acetaminophen detected in under-skin tissue", "setting": "[4]", "value": "60 ± 10", "unit": "µg/g"}, {"measurement": "body temperature, t = 0 min.", "setting": "rats", "value": "37.32 ± 0.06"}, {"measurement": "body temperature, t = 90 min.", "setting": "rats", "value": "36.61 ± 0.05"}, {"measurement": "body temperature, t = 180 min.", "setting": "rats", "value": "36.50 ± 0.08"}, {"measurement": "body temperature, t = 270 min.", "setting": "rats", "value": "36.50 ± 0.07"}, {"measurement": "rate of writhings inhibition", "setting": "mice", "value": 55, "unit": "%"}]}
{"smiles": "CC(=O)Nc1ccc(OC(=O)c2ccccc2O)cc1", "note": "[acetaminosalol, 4-acetamidophenyl salicylate, reference compound]", "values": [{"measurement": "In vitro Penetration rate (apparent flux)", "setting": "[1]", "value": 10, "unit": "μg/cm^2/h"}, {"measurement": "Plasma concentration of the parent compound (peak plasma level)", "setting": "[2]", "value": 0.1, "unit": "mg/L"}, {"measurement": "t (time to peak plasma level of the parent compound)", "setting": "[2]; parent compound", "value": "~5", "unit": "h"}, {"measurement": "solubility", "setting": "[3]; [5]", "value": "< 0.1", "unit": "mg/mL"}, {"measurement": "LD50", "setting": "in vivo", "value": 550, "unit": "mg/kg"}]}
{"smiles": "CC(=O)Nc1ccc(OC(=O)c2ccccc2OC(=O)CCCN(C)C)cc1.Cl", "note": "[4-acetamidophenyl 2((4-(dimethylamino)butanoyl)oxy)benzoate.HCl]", "values": [{"measurement": "In vitro Penetration rate (apparent flux)", "setting": "[1]", "value": 1800, "unit": "μg/cm^2/h"}, {"measurement": "Plasma concentration of the parent compound (peak plasma level)", "setting": "[2]", "value": 30.0, "unit": "mg/L"}, {"measurement": "t (time to peak plasma level of the parent compound)", "setting": "[2]; prodrug compound", "value": "~0.833", "unit": "h"}, {"measurement": "solubility", "setting": "[3]", "value": ">400", "unit": "mg/mL"}, {"measurement": "body temperature, t = 0 min.", "setting": "rats", "value": "37.27 ± 0.06"}, {"measurement": "body temperature, t = 90 min.", "setting": "rats", "value": "36.63 ± 0.05"}, {"measurement": "body temperature, t = 180 min.", "setting": "rats", "value": "36.52 ± 0.08"}, {"measurement": "body temperature, t = 270 min.", "setting": "rats", "value": "36.50 ± 0.07"}, {"measurement": "rate of writhings inhibition", "setting": "mice", "value": 55, "unit": "%"}]}
